How the values were obtained:
EAE = EAE induction and scoring (MOG35-55/CFA/PTX); type: in vivo, mice
Excerpt: Cd73^−/− mice have been previously described (Thompson et al., “Crucial Role for Ecto-5′-Nucleotidase (CD73) in Vascular Leakage During Hypoxia,” J. Exp. Med. 200:1395-1405 (2004), which is hereby incorporated by reference in its entirety) and have been backcrossed to C57BL/6 for 14 generations. Cd73^−/− mice have no overt susceptibility to infection and appear normal based on the size and cellular composition of their lymphoid organs and their T and B cell responses in in vivo and in vitro assays (Thompson et al., “Crucial Role for Ecto-5′-Nucleotidase (CD73) in Vascular Leakage During Hypoxia,” J. Exp. Med. 200:1395-1405 (2004), which is hereby incorporated by reference in its entirety). C57BL/6 and tcrα^−/− mice on the C57BL/6 background were purchased from The Jackson Laboratories. Mice were bred and housed under specific pathogen-free conditions at Cornell University or the University of Turku. For adenosine receptor blockade experiments, mice were given drinking water supplemented with 0.6 g/L of caffeine (Sigma) or 2 mg/kg SCH58261 (1 mg/kg s.c. and 1 mg/kg i.p.) in DMSO (45% vol. in PBS) or 45% DMSO alone starting 1 day before EAE induction and continuing throughout the experiment. All procedures performed on mice were approved by the relevant animal review committee.
EAE was induced by subjecting mice to the myelin oligodendrocyte glycoprotein (“MOG”) EAE-inducing regimen as described in Swanborg, “Experimental Autoimmune Encephalomyelitis in Rodents as a Model for Human Demyelinating Disease,” Clin. Immunol. Immunopathol. 77:4-13 (1995) and Bynoe et al., “Epicutaneous Immunization with Autoantigenic Peptides Induces T Suppressor Cells that Prevent Experimental Allergic Encephalomyelitis,” Immunity 19:317-328 (2003), which are hereby incorporated by reference in their entirety. […] Mice were scored daily for EAE based on disease symptom severity; 0=no disease, 0.5-1=weak/limp tail, 2=limp tail and partial hind limb paralysis, 3=total hind limb paralysis, 4=both hind limb and fore limb paralysis, 5=death. […]
As CD73 catalyzes the breakdown of AMP to adenosine and ARs are expressed in the CNS (Tsutsui et al., “A1 Adenosine Receptor Upregulation and Activation Attenuates Neuroinflammation and Demyelination in a Model of Multiple Sclerosis,” J. Neurosci. 24:1521-1529 (2004)); Rosi et al., The Influence of Brain Inflammation Upon Neuronal Adenosine A2B Receptors,” J. Neurochem. 86:220-227 (2003), which are hereby incorporated by reference in their entirety), it was next determined if AR signaling is important during EAE progression. […] Since CD73 is highly expressed on the choroid plexus (FIG. 6C), it was next determined if ARs are also expressed on the choroid plexus. […]

Bend.3 cells = assay: F-actin (phalloidin) staining of endothelial cells; type: cell-based, mouse; conditions: BECs, 1 μM, 3 or 30 min, vs vehicle
Description: Bend.3 cells were grown (as described above) on circular cover slips in 24-well plates. Cells were treated for 3 or 30 min with 1 μM CCPA, 1 μM […], DMSO or media alone. Cover slips were washed with PBS, fixed in 4% paraformaldahyde, washed again in PBS and then permeabilized with 0.5% TritonX-100 in PBS. After washing in PBS/1% BSA, cover slips were blocked with 1% BSA then stained with Phallodin-Alexa 568. Cover slips were washed and mounted on slides with ProlongGold containing DAPI (Invitrogen). Images were obtained on an Olympus BX51 fluorescent microscope.

Z310 cells = assay: Jurkat cell migration across Z310 choroid plexus cell transwell; type: cell-based, murine; conditions: 24 hours, n=1
Description: To test the hypothesis, Transwell membranes were seeded with Z310 cells and allowed to grow to confluencey. 2×10^6 Jurkat cells were added to the upper chamber with or with out NECA (n=1, general AR agonist), CCPA (n=1, A1 AR agonist), CGS 21860 (n=1, A2A AR agonist), or DMSO vehicle(n=1). After 24 hours, migrated cells in the lower chamber were counted. Values are relative to the number of cells that migrate through non-Z310 seeded transwells and the results are shown in FIG. 12.

hCMEC/D3 cells = assay: Jurkat cell migration across hCMEC/D3 transwell in vitro BBB; type: cell-based, human; conditions: 24 hours
Description: hCMEC/D3 cells were seeded onto Transwell and allowed to grow to confluencey. 2×10^6 Jurkat cells were added to the upper chamber with or without NECA (general adenosine receptor [AR] agonist), CCPA (A1 AR agonist), CGS 21860 (A2A AR agonist), or DMSO vehicle. After 24 hours, migrated cells in the lower chamber were counted. Values are relative to the number of cells that migrate through non-[…]3 seeded transwells.

blood brain barrier = assay: Fluorescently labeled dextran extravasation into mouse brain (fluorimetry); type: in vivo, mice; conditions: wild type mice, 10,000 Da FITC-dextran, i.v., 3 h, vs vehicle
Description: The adenosine receptor agonists NECA, CCPA, CGS 21860, and SCH 58261 (Tocris, Ellisville, Mo.) were each dissolved in DMSO then diluted in PBS to the desired concentration; in most cases final DMSO concentrations were <0.5% (vol/vol). Lexiscan (Regadenoson; TRC, Inc., Toronto) was dissolved in PBS. For vehicle controls, DMSO was diluted in PBS to the same concentration. Dehydrated dextrans labeled with either FITC or Texas Red (Invitrogen, Carlsbad, Calif.) were re-suspended in PBS to 10 mg/ml. All experiments involving dextran injection used 1.0 mg dextran in PBS. In experiments where drug and dextran were injected concomitantly, 1.0 mg of dextran was mixed with the drug to the desired concentration in a final volume of 200 μl. In dose-response experiments, drugs and dextrans were injected concomitantly. All injections, except injections of SCH 58261, were retro-orbital i.v. with a 27-gauge needle. In the SCH 58261 experiment, SCH 58261 injections, 1 mg/kg, were intraperitoneal and mice were pre-dosed with this concentration daily for 4 days prior to the day of the experiment. An additional injection was administered at the time of the experiment. Vehicle/drug and dextrans were injected on day 5 and tissues were collected 3 h after vehicle/drug administration. In Lexiscan experiments, Lexiscan was administered i.v. with 3 injections, 5 min apart and tissues were collected at 15 min unless otherwise indicated.
In dose-response experiments and experiments with the A1 AR and A2A AR knock-out mice, drugs and dextrans were injected concomitantly. After 3 h, the mice were anesthetized with ketamine/xylazine and subjected to a nose cone containing isoflurane. They were perfused with 25-50 ml ice-cold PBS through the left ventricle of the heart then decapitated. Their brains were removed, weighed and frozen for later analysis.
Ice-cold 50 mMTris-Cl (pH 7.6) was added to frozen brains (100 μl per 100 mg brain) and were to thawed on ice. They were homogenized with a dounce homogenizer and centrifuged at […] in a microfuge for 30 min at room temperature (rt). The supernatants were transferred to new tubes and an equal volume absolute methanol was added. The samples were centrifuged again at […] for 30 min at rt. Supernatant (200 μl) was transferred to a Corning costar 96 well black polystyrene assay plate (clear bottom). Additionally, a series of standards containing 0.001-10 pg/ml dextran in 50% Tris-Cl/50% absolute methanol (vol/vol) was added to each plate. Absolute concentrations of dextrans were derived from these standard curves. Fluorimetric analysis was performed on a BioTek (Winooski, Vt.) Synergy 4. FITC-dextran was detected at 488/519 (excitation/emission) and Texas Red-dextran was detected at 592/618.

HCMECD3 cells = assay: cAMP levels in human brain endothelial cells (cAMP Screen kit); type: cell-based; conditions: 15 minutes
Description: […]3 cells were grown to confluencey on 24 well plates. As adenosine receptor (“AR”) stimulation is known to influence cAMP levels, cells were treated with or without various concentrations of NECA (general AR agonist), CCPA (A1 AR agonist), CGS 21860 (A2A AR agonist), DMSO vehicle, or Forksolin (induces cAMP). After 15 minutes, lysis buffer was added and the cells were frozen at -80 C to stop the reaction. Duplicate samples were used for each condition. cAMP levels were assayed using a cAMP Screen kit (Applied Biosystems, Foster City, Calif.).

[1] = Klabunde 1983; cited from earlier work

Molecule | lymphocyte (Jurkat) migration across the CP (Z310 cells) | lymphocyte (Jurkat) migration across the in vitro BBB (hCMEC/D3 cells) | dextran entry into the CNS (blood brain barrier) | cAMP levels (HCMECD3 cells) | other results
Cn1c(=O)c2c(ncn2C)n(C)c1=O [caffeine] | – | – | – | – | EAE development (EAE; cd73−/− mice, caffeine 0.6 g/L in drinking water): did not develop EAE; EAE development (EAE; wild type mice, caffeine 0.6 g/L in drinking water from 1 day prior to and throughout EAE experiment): dramatically protected against EAE development
OC[C@H]1O[C@@H](n2cnc3c(NC4CCCC4)nc(Cl)nc32)[C@H](O)[C@@H]1O [CCPA, 2-chloro-N^6-cyclopentyladenosine] | induced lymphocyte migration at high levels | induced lymphocyte migration at high levels | increased dextran entry into the CNS | increased cAMP levels | actinomyosin stress fiber formation (Bend.3 cells): marked induction of actinomycin stress fibers
Nc1ncnc2c1ncn2[C@@H]1O[C@H](CO)[C@@H](O)[C@H]1O [adenosine] | – | – | – | – | half-life [1]: < 10 s
CCNC(=O)[C@H]1O[C@@H](n2cnc3c(N)nc(NCCc4ccc(CCC(=O)O)cc4)nc32)[C@H](O)[C@@H]1O [CGS 21680, 4-[2-[[6-Amino-9-(N-ethyl-b-D-ribofuranuronamidosyl)-9H-purin-2-yl]amino]ethyl]benzenepropanoic acid] | promoted lymphocyte migration across the CP | promoted lymphocyte migration across the in vitro BBB when used at a lower concentration | increased dextran entry into the CNS | slightly increased cAMP levels | –
PEG-ADA: PEGylated adenosine deaminase (protein, UniProt P56658 2-363, looked up, PEGylated, PEGylated adenosine deaminase) Adenosine deaminase: AQTPAFNKPKVELHVHLDGAIKPETILYYGRKRGIALPADTPEELQNIIGMDKPLSLPEFLAKFDYYMPAIAGCREAVKRIAYEFVEMKAKDGVVYVEVRYSPHLLANSKVEPIPWNQAEGDLTPDEVVSLVNQGLQEGERDFGVKVRSILCCMRHQPSWSSEVVELCKKYREQTVVAIDLAGDETIEGSSLFPGHVKAYAEAVKSGVHRTVHAGEVGSANVVKEAVDTLKTERLGHGYHTLEDATLYNRLRQENMHFEVCPWSSYLTGAWKPDTEHPVVRFKNDQVNYSLNTDDPLIFKSTLDTDYQMTKNEMGFTEEEFKRLNINAAKSSFLPEDEKKELLDLLYKAYGMPSPASAEQCL | – | – | – | – | EAE development (EAE; wild-type mice, 15 units/kg i.p. every 4 days, vs PBS vehicle): inhibits the development of EAE

Source: US20130224110A1, “USE OF ADENOSINE RECEPTOR SIGNALING TO MODULATE PERMEABILITY OF BLOOD-BRAIN BARRIER” (CORNELL UNIVERSITY, priority 2010, published 2013)
